Converted amounts (≈) assume the structure as drawn. Like-named read-outs stand apart in the source and are kept apart here.
Columns and labels:
[1] = system: promastigotes of Leishmania major (strain MHOM/IL/81/Friedlin); assay: In vitro toxicity assay (resazurin), L. major promastigotes; assay type: cell-based; details: 72 h; for GI50: read-out: L. major GI50; for MIC: read-out: L. major MIC
Experimental: (§1) Bloodstream forms of Trypanosoma brucei (clone 427-221a) and human myeloid leukaemia HL-60 cells were maintained in Baltz medium supplemented with 16.7% heat-inactivated bovine serum in a humidified atmosphere containing 5% CO2 at 37 °C. Promastigotes of Leishmania major (strain MHOM/IL/81/Friedlin [16]) were cultured in Schneider’s insect medium supplemented with 10% heat-inactivated foetal bovine serum in a humidified atmosphere containing 5% CO2 at 27 °C.
(§2) Toxicity assays were carried out as previously described with some modifications. In brief, cells were seeded in 96-well plates in a final volume of 200 μL of appropriate medium containing various concentrations of test compounds (tenfold dilution from 100 µM to 1 nM) and 1% DMSO. Wells just containing medium and 1% DMSO served as controls. The initial cell densities were 1 × 10^4/mL for T. brucei bloodstream forms, 2.5 × 10^5/mL for L. major promastigotes, and 5 × 10^4/mL for HL-60 cells. After 24 h incubation, 20 µL of a 0.5 mM resazurin solution prepared in PBS was added and the cells were incubated for a further 48 h. Thereafter, the absorbance of wells was read on a BioTek ELx808 microplate reader using a test wavelength of 570 nm and a reference wavelength of 630 nm. The 50% growth inhibition (GI50) value, i.e., the concentration of a compound necessary to reduce the growth rate of cells by 50% compared to the control, was determined by linear interpolation. The minimum inhibitory concentration (MIC) values, i.e. the concentration of a compound at which all trypanosomes and human cells were killed, was determined microscopically.

[2] = In vitro toxicity assay (resazurin), HL-60 cells; assay type: cell-based, human; details: human
Experimental: as §1, §2

[3] = system: human myeloid leukaemia HL-60 cells; assay: In vitro toxicity assay (resazurin), HL-60 cells; assay type: cell-based; details: 72 h; for GI50: 50% growth inhibition, resazurin
Experimental: as §1, §2

[4] = system: intracellular L. major amastigotes in J774 macrophages; assay: Intra-macrophages amastigote assay; assay type: cell-based, Leishmania major; details: for Killing of intracellular amastigotes: 72 h
Experimental: The intra-macrophages amastigote assay was performed as previously described with some modification. In brief, 1 mL of J774 cells (7 × 10^4) suspended in RPMI supplemented with 10% foetal bovine serum were pipetted into wells of a 24 well plate containing sterile glass coverslips. Subsequently, cells were incubated overnight at 37 °C and 5% CO2 in a humidified incubator. The next day, metacyclic L. major promastigotes (MOI 20:1) were added and the plates incubated for 24 h at 34 °C and 5% CO2 in a humidified incubator. After 24 h incubation, cells were washed 4 times with PBS to remove parasites that had not invaded any macrophage. Then, cells were incubated with compound 1 at the following concentrations: 10, 2.5, 1.25, 0.625 and 0.1 µM. Amphotericin B (0.1 µM) was used as a positive control and no drug treatment as a negative control. After 72 h of drug incubation, cells were gently washed 4 times with PBS and fixed with 4% paraformaldehyde for 30 min. Thereafter, cells were washed once with water and stained with Giemsa for 40 min. Cells on coverslips were then destained using the acetone-xylene protocol as follows: first, pure acetone; second, pure acetone; third, acetone/xylene 9:1; forth, acetone/xylene 7:3; fifth, acetone/xylene 3:7; sixth, pure xylene. Finally, coverslips were mounted on slides with Entellan new mounting medium. Infection index (parasites/cell) were determined by counting approximately 300 cells per coverslips using an Olympus BX50 microscope with a 100 × N.A. 1.35 oil immersion objective.
Fig. 2 Effect of compound 1 on intracellular L. major amastigotes. After infection of J774 macrophages with metacyclic promastigotes of L. major, cells were treated with compound 1 or amphotericin B (AM) or with DMSO alone (DMSO) 24 h post infection. After 72 h incubation, coverslips with cells were washed with PBS, fixed with paraformaldehyde and stained with Giemsa. Subsequently, cells were destained and coverslips mounted, and the infection index determined. Mean values ± SD of three independent experiments run in triplicate are shown

[5] = system: bloodstream forms of Trypanosoma brucei (clone 427-221a); assay: In vitro toxicity assay (resazurin), T. brucei bloodstream forms; assay type: cell-based; details: for GI50: read-out: T. brucei GI50; for MIC: read-out: T. brucei MIC
Experimental: as §1, §2

[6] = system: immortalised human embryonic kidney cell line HEK239T; parameters: method as in PMID 28917086; details: cited from earlier work
[7] = system: bloodstream forms of T. brucei rhodesiense; parameters: method as in PMID 17253841; details: cited from earlier work
[8] = system: Axenic grown amastigotes of L. donovani; parameters: method as in PMID 17253841; details: cited from earlier work
[9] = Leishmania major, promastigotes, 50% growth inhibition, resazurin
[10] = Leishmania major, promastigotes, determined microscopically
[11] = Trypanosoma brucei, 72 h, bloodstream forms, 50% growth inhibition, resazurin, 72 h
[12] = Trypanosoma brucei, bloodstream forms, concentration at which all cells were killed, determined microscopically, 72 h
[13] = HL-60 cells (human myeloid leukaemia), cytotoxicity, 50% growth inhibition, resazurin, 72 h, read-out: HL-60 cells GI50
[14] = cytotoxicity, determined microscopically
[15] = cytotoxicity, 50% growth inhibition, resazurin, 72 h, read-out: HL-60 cells GI50

| Compound | GI50 [1, 9] | MIC [1, 10] | GI50 [5, 11] | MIC [5, 12] | GI50 at 72 h [2, 13] | HL-60 cells MIC [3, 14] | GI50 ([5]; Trypanosoma brucei, 72 h) | MIC ([5]; Trypanosoma brucei, 72 h) | GI50 ([1]; Leishmania major) | MIC ([1]; Leishmania major) | GI50 at 72 h [2, 15] | also measured |
| --- | --- | --- | --- | --- | --- | --- | --- | --- | --- | --- | --- | --- |
| C[C@@H]1[C@H](O)[C@@H](C)/C=C/C=C/C=C/C=C/C=C/C=C/C=C/[C@H](O[C@@H]2O[C@H](C)[C@@H](O)[C@H](N)[C@@H]2O)C[C@@H]2O[C@](O)(C[C@@H](O)C[C@@H](O)[C@H](O)CC[C@@H](O)C[C@@H](O)CC(=O)O[C@H]1C)C[C@H](O)[C@H]2C(=O)O [Amphotericin B, reference compound] | 0.036 ± 0.001 µM | 0.1 µM (≈ 0.0924 µg/mL) | – | – | – | – | – | – | – | – | – | GI50 at 72 h ([2]; HL-60 cells GI50): 50.7 ± 9.3 µM; HL-60 cells MIC ([3]; human): > 100 µM; Killing of intracellular amastigotes ([4]; at 0.1 μM, positive control): completely destroy |
| CC1(C)C(=O)C=C[C@]2(C)C3C(=O)C[C@@]4(C)[C@H](c5ccoc5)OC(=O)[C@H]5O[C@]54[C@]3(C)CC[C@@H]12 (stereo partly shown) [Compound 1, kotschyienone A] | 2 to 3 µM | 10 µM (≈ 4.39 µg/mL) | 2 to 3 µM | 10 µM (≈ 4.39 µg/mL) | 31.5 to 46.2 µM | 100 µM | – | – | – | – | – | GI50 ([5]; Trypanosoma brucei, bloodstream forms, same value as 2.48 μM in mass units): 1.09 µg/mL; GI50 ([5]; bloodstream forms, 50% growth inhibition, resazurin, 72 h): 2.48 ± 0.12 µM; GI50 ([1]; promastigotes, 50% growth inhibition, resazurin): 2.86 ± 0.89 µM; GI50 ([3]; cytotoxicity): 31.5 ± 3.7 µM; GI50 ([4]; Leishmania major, J774, same value as 1.51 μM in mass units): 0.66 µg/mL (≈ 1.51 µM); Killing of intracellular amastigotes ([4]; at 10 μM): killed completely; ED50 (50% effective dose), reduction of parasite burden of infected macrophages ([4]; intracellular amastigotes in J774 macrophages, 72 h drug incubation, infection index): 1.51 µM; cytotoxicity for HEK239T [6]: > 200 µg/mL |
| CC1(C)C(=O)C=C[C@]2(C)C3C(=O)C[C@@]4(C)[C@H](c5ccoc5)OC(=O)[C@H]5O[C@]54[C@]3(C)[C@H](O)C[C@@H]12 (stereo partly shown) [Compound 2, kotschyienone B] | 14.9 ± 5.9 µM | 100 µM (≈ 45.5 µg/mL) | 14.2 ± 2.9 µM | 100 µM (≈ 45.5 µg/mL) | > 100 µM | > 100 µM | – | – | – | – | – | – |
| CC1(C)C(=O)C=C[C@]2(C)C3CC[C@@]4(C)[C@H](c5ccoc5)OC(=O)[C@H]5O[C@]54[C@]3(C)[C@H](O)C[C@@H]12 (stereo partly shown) [Compound 3, 7-deacetylgedunin] | – | – | – | – | – | 100 µM | 14.5 ± 3.2 µM | 100 µM (≈ 44.1 µg/mL) | 11.6 ± 1.6 µM | 100 µM (≈ 44.1 µg/mL) | 31.5 to 46.2 µM | GI50 ([3]; cytotoxicity): 46.2 ± 6.7 µM; GI50 [7]: 3.4 µM; GI50 [8]: ~1 µM |
| CC1(C)C(=O)C=C[C@]2(C)C3CC[C@@]4(C)[C@H](c5ccoc5)OC(=O)[C@H]5O[C@]54[C@]3(C)C(=O)C[C@@H]12 (stereo partly shown) [Compound 4, 7-deacetyl-7-oxogedunin] | – | – | – | – | – | > 100 µM | 3.18 ± 0.48 µM | > 100 µM | 7.63 ± 2.78 µM | > 100 µM | > 100 µM | GI50 [7]: 3.4 µM; GI50 [8]: ~1 µM |
| C=C1[C@@H]([C@@]2(C)C=CC(=O)C(C)(C)[C@@H]2CC(=O)OC)CC[C@@]2(C)[C@H](c3ccoc3)OC(=O)[C@H]3O[C@]132 [Compound 5, andirobin] | > 100 µM | > 100 µM | 11.5 ± 6.3 µM | > 100 µM | > 100 µM | > 100 µM | – | – | – | – | – | – |
| C=C1[C@@H]2CC[C@@]3(C)[C@H](c4ccoc4)OC(=O)C[C@]13O[C@H]1CC(=O)C(C)(C)[C@H](CC(=O)OC)[C@]12C [Compound 6, methyl angolensate] | – | – | – | – | – | > 100 µM | 6.04 ± 2.25 µM | > 100 µM | > 100 µM | > 100 µM | > 100 µM | – |
| Cc1ccc(C(=O)Nc2ccc(S(=O)(=O)O)c3cc(S(=O)(=O)O)cc(S(=O)(=O)O)c23)cc1NC(=O)c1cccc(NC(=O)Nc2cccc(C(=O)Nc3cc(C(=O)Nc4ccc(S(=O)(=O)O)c5cc(S(=O)(=O)O)cc(S(=O)(=O)O)c45)ccc3C)c2)c1 [Suramin, reference compound] | – | – | 0.042 ± 0.004 µM | 1 µM (≈ 1.3 µg/mL) | – | – | – | – | – | – | – | GI50 at 72 h ([2]; HL-60 cells GI50): > 100 µM; HL-60 cells MIC ([3]; human): > 100 µM |

Source: publication PMC7253382, “Trypanocidal and leishmanicidal activity of six limonoids” (Journal of Natural Medicines, 2020)
